From ChEMBL document CHEMBL5029191, “The Inhibitors of Protein Tyrosine Phosphatase Nonreceptor Type 2 (PTPN2) as Potential Enhancers of Cancer Immunotherapy and Type 1 (PTPN1) as Treatment of Metabolic Diseases” (ACS Med Chem Lett, 2022)

What was measured:
[1] = test system: B16-F10; assay: Growth inhibition of […]-induced mouse B16-F10 cells at 33 uM relative to control; format: functional; details: read-out: GI
[2] = target: T1, Tyrosine-protein phosphatase non-receptor type 2 (Homo sapiens, UniProt P17706); assay: Inhibition of PTPN2 (unknown origin) by Mobility shift assay
T1 sequence (P17706 whole entry): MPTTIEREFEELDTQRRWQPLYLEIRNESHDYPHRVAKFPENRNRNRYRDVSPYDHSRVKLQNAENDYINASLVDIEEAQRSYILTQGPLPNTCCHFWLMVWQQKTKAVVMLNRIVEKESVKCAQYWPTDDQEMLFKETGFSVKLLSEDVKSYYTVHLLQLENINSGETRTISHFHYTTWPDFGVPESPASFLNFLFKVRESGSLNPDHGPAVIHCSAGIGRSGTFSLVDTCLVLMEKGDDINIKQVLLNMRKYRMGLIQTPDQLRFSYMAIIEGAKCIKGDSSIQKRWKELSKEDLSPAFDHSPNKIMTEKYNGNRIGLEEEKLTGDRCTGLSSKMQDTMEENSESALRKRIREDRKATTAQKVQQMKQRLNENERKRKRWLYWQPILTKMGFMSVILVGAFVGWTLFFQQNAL

[3] = test system: B16-F10; assay: Growth inhibition of mouse B16-F10 cells at 33 uM relative to control; format: functional; details: read-out: GI
[4] = target: T2, Tyrosine-protein phosphatase non-receptor type 1 (Homo sapiens, UniProt P18031); assay: Inhibition of PTPN1 (unknown origin) by Mobility shift assay
T2 sequence (P18031 whole entry): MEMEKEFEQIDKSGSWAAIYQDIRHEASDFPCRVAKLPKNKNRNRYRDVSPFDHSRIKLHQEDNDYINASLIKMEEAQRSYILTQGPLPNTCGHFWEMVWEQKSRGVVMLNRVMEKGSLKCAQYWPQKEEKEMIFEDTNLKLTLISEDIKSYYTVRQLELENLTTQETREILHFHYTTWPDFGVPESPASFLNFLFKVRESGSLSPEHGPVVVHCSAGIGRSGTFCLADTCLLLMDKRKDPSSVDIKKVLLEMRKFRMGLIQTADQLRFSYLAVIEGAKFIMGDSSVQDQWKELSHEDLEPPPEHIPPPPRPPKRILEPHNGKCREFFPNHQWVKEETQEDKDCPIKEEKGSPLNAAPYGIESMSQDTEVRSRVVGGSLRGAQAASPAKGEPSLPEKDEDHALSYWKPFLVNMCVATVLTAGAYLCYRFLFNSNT

Structure (SMILES) | inhibition of growth at 33 µM [1] | IC50 [2] | inhibition of growth at 33 µM [3] | IC50 [4]
O=C1CN(c2c(O)cc3ccc(-c4cnn(CC5CC5)c4)cc3c2F)S(=O)(=O)N1 | 60% | < 1 nM | < 25% | < 1 nM
O=C1CN(c2c(O)cc3ccc(C4CCN(S(=O)(=O)C5CC5)C4)cc3c2F)S(=O)(=O)N1 (centres undefined) | 60% | < 1 nM | < 25% | 1 nM
CC(C)(C#N)CCOc1cc2c(F)c(N3CC(=O)NS3(=O)=O)c(O)cc2cc1O |  | < 1 nM |  | < 1 nM
O=C1CN(c2c(O)cc3ccc(NCCN4CCC4)cc3c2F)S(=O)(=O)N1 | > 90% | 1 nM | < 25% | > 100 nM
CC(C)(C#N)CCOc1ccc2cc(O)c(N3CC(=O)NS3(=O)=O)c(F)c2c1 | 60% | < 1 nM | < 25% | < 1 nM
CCS(=O)(=O)N1CC=C(c2ccc3cc(O)c(N4CC(=O)NS4(=O)=O)c(F)c3c2)C1 | > 90% | < 1 nM | < 25% | < 1 nM
CC(C)CCS(=O)(=O)N1CC=C(c2ccc3cc(O)c(N4CC(=O)NS4(=O)=O)c(F)c3c2)C1 | 60% | < 1 nM | < 25% | < 1 nM
O=C1CN(c2c(O)cc3ccc(NCCC4CC4)cc3c2F)S(=O)(=O)N1 | > 90% | 1 nM | < 25% | 1 nM
CC(C)(O)CCOc1ccc2c(F)c(N3CC(=O)NS3(=O)=O)c(O)cc2c1 |  | > 10 nM |  | > 100 nM
O=C1CN(c2c(O)cc3ccc(OCC4CCCOC4)cc3c2F)S(=O)(=O)N1 (centres undefined) | 60% | < 1 nM | < 25% | > 100 nM
C[C@H](O)CCOc1ccc2cc(O)c(N3CC(=O)NS3(=O)=O)c(F)c2c1 | > 90% | < 1 nM | < 25% | 1 nM
O=C1CN(c2c(O)cc3ccc(OCCC4CC4(F)F)cc3c2F)S(=O)(=O)N1 (centres undefined) | 60% | < 1 nM | < 25% | < 1 nM
